Test results taken from ChEMBL document CHEMBL3045532, “Synthesis and evaluation of novel prodrugs of naproxen” (Med Chem Res, 2011).

What was measured:
Rattus norvegicus [1] = experiment: Anti-inflammatory activity in Rattus norvegicus Wistar (rat) assessed as inhibition of carrageenan-induced edema volume at 66.0 mg/kg, po measured after 90 min; type: functional; settings: 1.5 h
Rattus norvegicus [2] = experiment: Anti-inflammatory activity in Rattus norvegicus Wistar (rat) assessed as inhibition of carrageenan-induced edema volume at 66.0 mg/kg, po measured after 120 min; type: functional; settings: 2 h
Rattus norvegicus [3] = experiment: Gastrointestinal toxicity in Rattus norvegicus Wistar (rat) assessed as ulcer at 66 mg/kg, po; type: organism-based; parameters: dose 66 mg/kg, route oral; settings: in vivo
Rattus norvegicus [4] = experiment: Anti-inflammatory activity in Rattus norvegicus Wistar (rat) assessed as inhibition of carrageenan-induced edema volume at 66.0 mg/kg, po measured after 60 min; type: functional; settings: 1 h
Mus musculus [5] = experiment: Analgesic activity in Mus musculus (mouse) assessed as inhibition of acetic acid-induced writhing at 66 mg/kg, po pretreated 1 hr before acetic acid challenge; type: functional
Rattus norvegicus [6] = experiment: Anti-inflammatory activity in Rattus norvegicus Wistar (rat) assessed as inhibition of carrageenan-induced edema volume at 66.0 mg/kg, po measured after 30 min; type: functional; settings: 0.5 h
[7] = Prodrug conversion in phosphate buffer assessed as half-life for hydrolysis at pH 7.4; type: physicochemical
[8] = Prodrug conversion in acetate buffer assessed as half-life for hydrolysis at pH 4; type: physicochemical
[9] = Prodrug conversion in acetate buffer assessed as half-life for hydrolysis at pH 5; type: physicochemical
[10] = Prodrug conversion in acetate buffer assessed as half-life for hydrolysis at pH 3; type: physicochemical
Rattus norvegicus [11] = species on record: Rattus norvegicus; experiment: animal or person; settings: Wistar, po, 1.5 h, read-out: INH
Description: Anti-inflammatory activity in Rattus norvegicus Wistar (rat) assessed as inhibition of carrageenan-induced edema volume at 50.0 mg/kg, po measured after 90 min

Rattus norvegicus [12] = species on record: Rattus norvegicus; experiment: animal or person; settings: Wistar, po, 2 h, read-out: INH
Description: Anti-inflammatory activity in Rattus norvegicus Wistar (rat) assessed as inhibition of carrageenan-induced edema volume at 50.0 mg/kg, po measured after 120 min

Mus musculus [13] = species on record: Mus musculus; experiment: animal or person; settings: po, read-out: INH
Description: Analgesic activity in Mus musculus (mouse) assessed as inhibition of acetic acid-induced writhing at 50 mg/kg, po pretreated 1 hr before acetic acid challenge

Rattus norvegicus [14] = species on record: Rattus norvegicus; experiment: animal or person; settings: Wistar, po, 0.5 h, read-out: INH
Description: Anti-inflammatory activity in Rattus norvegicus Wistar (rat) assessed as inhibition of carrageenan-induced edema volume at 50.0 mg/kg, po measured after 30 min

Rattus norvegicus [15] = species on record: Rattus norvegicus; experiment: animal or person; settings: Wistar, po, 1 h, read-out: INH
Description: Anti-inflammatory activity in Rattus norvegicus Wistar (rat) assessed as inhibition of carrageenan-induced edema volume at 50.0 mg/kg, po measured after 60 min

Rattus norvegicus [16] = experiment: Anti-inflammatory activity in Rattus norvegicus Wistar (rat) assessed as inhibition of carrageenan-induced edema volume at 62.8 mg/kg, po measured after 90 min; type: functional; settings: 1.5 h
Rattus norvegicus [17] = experiment: Anti-inflammatory activity in Rattus norvegicus Wistar (rat) assessed as inhibition of carrageenan-induced edema volume at 62.8 mg/kg, po measured after 120 min; type: functional; settings: 2 h
Rattus norvegicus [18] = experiment: Gastrointestinal toxicity in Rattus norvegicus Wistar (rat) assessed as ulcer at 62.8 mg/kg, po; type: organism-based; parameters: dose 62.8 mg/kg, route oral; settings: in vivo
Rattus norvegicus [19] = experiment: Anti-inflammatory activity in Rattus norvegicus Wistar (rat) assessed as inhibition of carrageenan-induced edema volume at 62.8 mg/kg, po measured after 60 min; type: functional; settings: 1 h
Mus musculus [20] = experiment: Analgesic activity in Mus musculus (mouse) assessed as inhibition of acetic acid-induced writhing at 62.8 mg/kg, po pretreated 1 hr before acetic acid challenge; type: functional
Rattus norvegicus [21] = experiment: Anti-inflammatory activity in Rattus norvegicus Wistar (rat) assessed as inhibition of carrageenan-induced edema volume at 62.8 mg/kg, po measured after 30 min; type: functional; settings: 0.5 h
Rattus norvegicus [22] = experiment: Anti-inflammatory activity in Rattus norvegicus Wistar (rat) assessed as inhibition of carrageenan-induced edema volume at 63.2 mg/kg, po measured after 90 min; type: functional; settings: 1.5 h
Rattus norvegicus [23] = experiment: Anti-inflammatory activity in Rattus norvegicus Wistar (rat) assessed as inhibition of carrageenan-induced edema volume at 63.2 mg/kg, po measured after 120 min; type: functional; settings: 2 h
Rattus norvegicus [24] = experiment: Anti-inflammatory activity in Rattus norvegicus Wistar (rat) assessed as inhibition of carrageenan-induced edema volume at 63.2 mg/kg, po measured after 60 min; type: functional; settings: 1 h
Mus musculus [25] = experiment: Analgesic activity in Mus musculus (mouse) assessed as inhibition of acetic acid-induced writhing at 63.2 mg/kg, po pretreated 1 hr before acetic acid challenge; type: functional
Rattus norvegicus [26] = experiment: Anti-inflammatory activity in Rattus norvegicus Wistar (rat) assessed as inhibition of carrageenan-induced edema volume at 63.2 mg/kg, po measured after 30 min; type: functional; settings: 0.5 h
Rattus norvegicus [27] = experiment: Gastrointestinal toxicity in Rattus norvegicus Wistar (rat) assessed as ulcer at 63.2 mg/kg, po; type: organism-based; parameters: dose 63.2 mg/kg, route oral; settings: in vivo

Question: With `COc1ccc2cc(C(C)C(=O)OCC(OC(C)=O)C(OC(C)=O)C(OC(C)=O)C(/C=N/[C@H](C(=O)O)C(C)C)OC(C)=O)ccc2c1` (stereo not given in full) as the molecule, how does the inhibition in vivo at 66 mg/kg (Rattus norvegicus [1]) read?
Answer: Its inhibition in vivo at 66 mg/kg is 43%.

Question: What about the inhibition in vivo at 66 mg/kg (Rattus norvegicus [2]) of the same molecule?
Answer: The inhibition in vivo at 66 mg/kg was 64%.

Question: And the Activity (Rattus norvegicus [3])?
Answer: The Activity was “Non-toxic”.

Question: What about the inhibition in vivo at 66 mg/kg (Rattus norvegicus [4]) of the same molecule?
Answer: The inhibition in vivo at 66 mg/kg was 19%.

Question: What about the inhibition in vivo at 66 mg/kg (Mus musculus [5]) of the same molecule?
Answer: Its inhibition in vivo at 66 mg/kg is 63.6%.

Question: What about the inhibition in vivo at 66 mg/kg (Rattus norvegicus [6]) of the same molecule?
Answer: Its inhibition in vivo at 66 mg/kg is 30%.

Question: What about the t1/2 [7] of the same molecule?
Answer: Its t1/2 is 19 h.

Question: What about the t1/2 [8] of the same molecule?
Answer: The t1/2 was 115 h.

Question: What about the t1/2 [9] of the same molecule?
Answer: The t1/2 was 88 h.

Question: And the t1/2 [10]?
Answer: Its t1/2 is 44 h.

Question: What does the source list for `COc1ccc2cc([C@H](C)C(=O)O)ccc2c1` [NAPROXEN]?
Answer: inhibition in vivo at 50 mg/kg (Rattus norvegicus [11]): 42%; inhibition in vivo at 50 mg/kg (Rattus norvegicus [12]): 58%; inhibition in vivo at 50 mg/kg (Mus musculus [13]): 61.4%; inhibition in vivo at 50 mg/kg (Rattus norvegicus [14]): 10%; inhibition in vivo at 50 mg/kg (Rattus norvegicus [15]): 32%

Question: With `COc1ccc2cc(C(C)C(=O)OCC(OC(C)=O)C(OC(C)=O)C(OC(C)=O)C(/C=N/CC(=O)O)OC(C)=O)ccc2c1` (stereo not given) as the molecule, how does the inhibition in vivo at 62.8 mg/kg (Rattus norvegicus [16]) read?
Answer: Its inhibition in vivo at 62.8 mg/kg is 58%.

Question: What about the inhibition in vivo at 62.8 mg/kg (Rattus norvegicus [17]) of the same molecule?
Answer: The inhibition in vivo at 62.8 mg/kg was 76%.

Question: And the Activity (Rattus norvegicus [18])?
Answer: Its Activity is “Non-toxic”.

Question: What about the inhibition in vivo at 62.8 mg/kg (Rattus norvegicus [19]) of the same molecule?
Answer: Its inhibition in vivo at 62.8 mg/kg is 37%.

Question: What about the inhibition in vivo at 62.8 mg/kg (Mus musculus [20]) of the same molecule?
Answer: The inhibition in vivo at 62.8 mg/kg was 63.6%.

Question: And the inhibition in vivo at 62.8 mg/kg (Rattus norvegicus [21])?
Answer: Its inhibition in vivo at 62.8 mg/kg is 58%.

Question: What about the t1/2 [7] of the same molecule?
Answer: The t1/2 was 25 h.

Question: What about the t1/2 [8] of the same molecule?
Answer: Its t1/2 is 44 h.

Question: What about the t1/2 [9] of the same molecule?
Answer: The t1/2 was 88 h.

Question: What about the t1/2 [10] of the same molecule?
Answer: Its t1/2 is 115 h.

Question: For `COc1ccc2cc(C(C)C(=O)OCC(OC(C)=O)C(OC(C)=O)C(OC(C)=O)C(/C=N/[C@@H](C)C(=O)O)OC(C)=O)ccc2c1` (stereo not given in full), which inhibition in vivo at 63.2 mg/kg (Rattus norvegicus [22]) is on record?
Answer: The inhibition in vivo at 63.2 mg/kg was 49%.

Question: What about the inhibition in vivo at 63.2 mg/kg (Rattus norvegicus [23]) of the same molecule?
Answer: Its inhibition in vivo at 63.2 mg/kg is 67%.

Question: What about the inhibition in vivo at 63.2 mg/kg (Rattus norvegicus [24]) of the same molecule?
Answer: Its inhibition in vivo at 63.2 mg/kg is 29%.

Question: What about the inhibition in vivo at 63.2 mg/kg (Mus musculus [25]) of the same molecule?
Answer: Its inhibition in vivo at 63.2 mg/kg is 98.2%.

Question: What about the inhibition in vivo at 63.2 mg/kg (Rattus norvegicus [26]) of the same molecule?
Answer: The inhibition in vivo at 63.2 mg/kg was 62%.

Question: What about the t1/2 [7] of the same molecule?
Answer: Its t1/2 is 22 h.

Question: And the t1/2 [8]?
Answer: Its t1/2 is 15 h.

Question: And the t1/2 [9]?
Answer: The t1/2 was 77 h.

Question: What about the t1/2 [10] of the same molecule?
Answer: The t1/2 was 15 h.

Question: And the Activity (Rattus norvegicus [27])?
Answer: The Activity was “Non-toxic”.
